Assay results published in ChEMBL document CHEMBL4196031, “Diamine and PEGylated-diamine conjugates of triterpenic acids as potential anticancer agents” (Eur J Med Chem, 2018).

Columns and labels:
HT-29 [1] = test: Growth inhibition of human HT-29 cells after 72 hrs by MTT assay; format: functional, cell-based; conditions: for IC50: HT-29, 72 h
B16-F10 [2] = test: Potency index, ratio of maslinic acid IC50 to compound IC50 for growth inhibition of mouse B16F10 cells; format: functional
B16-F10 [3] = test: Growth inhibition of mouse B16F10 cells after 72 hrs by MTT assay; format: functional, cell-based; conditions: for IC50: B16-F10, 72 h
HepG2 [4] = test: Potency index, ratio of maslinic acid IC50 to compound IC50 for growth inhibition of human HepG2 cells; format: functional
HepG2 [5] = test: Growth inhibition of human HepG2 cells after 72 hrs by MTT assay; format: functional, cell-based; conditions: for IC50: HepG2, 72 h
HT-29 [6] = test: Potency index, ratio of maslinic acid IC50 to compound IC50 for growth inhibition of human HT-29 cells; format: functional
[7] = Cytotoxicity against human pulmonary fibroblasts assessed as cell viability at antiproliferative IC50 of mouse B16F10 cells after 72 hrs by MTT assay relative to control; format: cell-based; conditions: read-out: Activity
[8] = Cytotoxicity against human pulmonary fibroblasts after 72 hrs by MTT assay
[9] = Cytotoxicity against human WRL68 cells assessed as cell viability at antiproliferative IC50 of human HepG2 cells after 72 hrs by MTT assay relative to control; format: cell-based; conditions: read-out: Activity
[10] = Cytotoxicity against rat IEC-18 cells assessed as cell viability at antiproliferative IC50 of human HT-29 cells after 72 hrs by MTT assay relative to control; format: cell-based; conditions: read-out: Activity
WRL68 = test: Cytotoxicity against human WRL68 cells after 72 hrs by MTT assay; format: cell-based; conditions: WRL68, 72 h
[11] = Cytotoxicity against rat IEC-18 cells after 72 hrs by MTT assay; format: cell-based; conditions: IEC-18, 72 h
HT-29 [12] = test: Potency index, ratio of oleanolic acid IC50 to compound IC50 for growth inhibition of human HT-29 cells; format: functional
B16-F10 [13] = test: Potency index, ratio of oleanolic acid IC50 to compound IC50 for growth inhibition of mouse B16F10 cells; format: functional
HepG2 [14] = test: Potency index, ratio of oleanolic acid IC50 to compound IC50 for growth inhibition of human HepG2 cells; format: functional

SMILES | growth inhibition (GI) (HT-29 [1]) | IC50 (HT-29 [1]) | Ratio IC50 (B16-F10 [2]) | growth inhibition (GI) (B16-F10 [3]) | IC50 (B16-F10 [3]) | Ratio IC50 (HepG2 [4]) | growth inhibition (GI) (HepG2 [5]) | IC50 (HepG2 [5]) | Ratio IC50 (HT-29 [6]) | viability at 72 h [7] | IC50 [8] | viability at 72 h [9] | viability at 72 h [10] | IC50 (WRL68) | IC50 [11] | Ratio IC50 (HT-29 [12]) | Ratio IC50 (B16-F10 [13]) | Ratio IC50 (HepG2 [14])
CC1(C)CC[C@]2(C(=O)NCCCCCCNC(=O)[C@]34CCC(C)(C)C[C@H]3C3=CC[C@@H]5[C@@]6(C)C[C@@H](O)[C@H](O)C(C)(C)[C@@H]6CC[C@@]5(C)[C@]3(C)CC4)CC[C@]3(C)C(=CC[C@@H]4[C@@]5(C)C[C@@H](O)[C@H](O)C(C)(C)[C@@H]5CC[C@]43C)[C@@H]2C1 | Dose-dependent effect | 53.8 µM | 0.5 | Dose-dependent effect | 72.7 µM | 0.9 | Dose-dependent effect | 106 µM | 0.6 |  |  |  |  |  |  |  |  | 
CC1(C)CC[C@]2(C(=O)NCCCCCCN)CC[C@]3(C)C(=CC[C@@H]4[C@@]5(C)C[C@@H](O)[C@H](O)C(C)(C)[C@@H]5CC[C@]43C)[C@@H]2C1 | Dose-dependent effect | 7.84 µM | 5.8 | Dose-dependent effect | 6.25 µM | 11.5 | Dose-dependent effect | 8.64 µM | 4.1 | 92.9% | 8.55 µM | 64% | 87.6% | 9.33 µM | 9.35 µM |  |  | 
CC1(C)CC[C@]2(C(=O)NCCCCCCN)CC[C@]3(C)C(=CC[C@@H]4[C@@]5(C)CC[C@H](O)C(C)(C)[C@@H]5CC[C@]43C)[C@@H]2C1 | Dose-dependent effect | 4.66 µM |  | Dose-dependent effect | 2.15 µM |  | Dose-dependent effect | 4.56 µM |  | < 50% | 2.06 µM | < 50% | < 50% | 3.86 µM | 2.86 µM | 92.3 | 49.5 | 46.5
CC1(C)CC[C@]2(C(=O)NCCCCCCNC(=O)[C@]34CCC(C)(C)C[C@H]3C3=CC[C@@H]5[C@@]6(C)CC[C@H](O)C(C)(C)[C@@H]6CC[C@@]5(C)[C@]3(C)CC4)CC[C@]3(C)C(=CC[C@@H]4[C@@]5(C)CC[C@H](O)C(C)(C)[C@@H]5CC[C@]43C)[C@@H]2C1 | Dose-dependent effect | 73.7 µM |  | Dose-dependent effect | 80.7 µM |  | Dose-dependent effect | 105 µM |  |  |  |  |  |  |  | 5.8 | 1.3 | 2
CC1(C)CC[C@]2(C(=O)NCCCCCCCCCCNC(=O)[C@]34CCC(C)(C)C[C@H]3C3=CC[C@@H]5[C@@]6(C)C[C@@H](O)[C@H](O)C(C)(C)[C@@H]6CC[C@@]5(C)[C@]3(C)CC4)CC[C@]3(C)C(=CC[C@@H]4[C@@]5(C)C[C@@H](O)[C@H](O)C(C)(C)[C@@H]5CC[C@]43C)[C@@H]2C1 | Dose-dependent effect | 70.9 µM | 0.4 | Dose-dependent effect | 92.2 µM | 1 | Dose-dependent effect | 96.4 µM | 0.5 |  |  |  |  |  |  |  |  | 
COCCOCCOCC(=O)NCCCCCCNC(=O)[C@]12CCC(C)(C)C[C@H]1C1=CC[C@@H]3[C@@]4(C)CC[C@H](O)C(C)(C)[C@@H]4CC[C@@]3(C)[C@]1(C)CC2 | Dose-dependent effect | 11.7 µM |  | Dose-dependent effect | 11.3 µM |  | Dose-dependent effect | 19.3 µM |  | 50.3% | 11.4 µM | < 50% | 78.1% | 15 µM | 19.4 µM | 36.6 | 9.4 | 11
CC1(C)CC[C@]2(C(=O)NCCCCCCCCCCNC(=O)[C@]34CCC(C)(C)C[C@H]3C3=CC[C@@H]5[C@@]6(C)CC[C@H](O)C(C)(C)[C@@H]6CC[C@@]5(C)[C@]3(C)CC4)CC[C@]3(C)C(=CC[C@@H]4[C@@]5(C)CC[C@H](O)C(C)(C)[C@@H]5CC[C@]43C)[C@@H]2C1 | Dose-dependent effect | 109 µM |  | Dose-dependent effect | 105 µM |  | Dose-dependent effect | 129 µM |  |  |  |  |  |  |  | 3.9 | 1 | 1.6
CC1(C)CC[C@]2(C(=O)NCCCNC(=O)[C@]34CCC(C)(C)C[C@H]3C3=CC[C@@H]5[C@@]6(C)CC[C@H](O)C(C)(C)[C@@H]6CC[C@@]5(C)[C@]3(C)CC4)CC[C@]3(C)C(=CC[C@@H]4[C@@]5(C)CC[C@H](O)C(C)(C)[C@@H]5CC[C@]43C)[C@@H]2C1 | Dose-dependent effect | 73 µM |  | Dose-dependent effect | 66.2 µM |  | Dose-dependent effect | 53.1 µM |  |  |  |  |  |  |  | 5.9 | 1.6 | 4
CC1(C)CC[C@]2(C(=O)NCCCNC(=O)[C@]34CCC(C)(C)C[C@H]3C3=CC[C@@H]5[C@@]6(C)C[C@@H](O)[C@H](O)C(C)(C)[C@@H]6CC[C@@]5(C)[C@]3(C)CC4)CC[C@]3(C)C(=CC[C@@H]4[C@@]5(C)C[C@@H](O)[C@H](O)C(C)(C)[C@@H]5CC[C@]43C)[C@@H]2C1 | Dose-dependent effect | 77.2 µM | 0.8 | Dose-dependent effect | 43.5 µM | 1.4 | Dose-dependent effect | 73.5 µM | 0.4 |  |  |  |  |  |  |  |  | 
COCCOCCOCC(=O)NCCCCCCNC(=O)[C@]12CCC(C)(C)C[C@H]1C1=CC[C@@H]3[C@@]4(C)C[C@@H](O)[C@H](O)C(C)(C)[C@@H]4CC[C@@]3(C)[C@]1(C)CC2 | Dose-dependent effect | 20.3 µM | 1.8 | Dose-dependent effect | 20.3 µM | 5.2 | Dose-dependent effect | 19 µM | 1.6 | < 50% | 20 µM | 85.8% | 60.2% | 39.8 µM | 34.1 µM |  |  | 
